Experimental data as given in PubChem BioAssay (NCI).
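Briefly, cells in 96-well plates were exposed to five compound concentrations for 48 h, and endpoints were estimated by linear interpolation. At the TGI there is no net growth.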

Experiments:
Test in all cases: NCI anticancer screen, dose series, 48 h
A549 NSCLC = tested on: A549 NSCLC
BT-549 breast = tested on: BT-549 breast
DU-145 prostate = tested on: DU-145 prostate
EKVX NSCLC = tested on: EKVX NSCLC
HCT-15 colon = tested on: HCT-15 colon
HT29 colon = tested on: HT29 colon
K-562 leukemia = tested on: K-562 leukemia
M14 melanoma = tested on: M14 melanoma
OVCAR-5 ovarian = tested on: OVCAR-5 ovarian
SF-539 CNS = tested on: SF-539 CNS
SNB-19 CNS = tested on: SNB-19 CNS
SNB-75 CNS = tested on: SNB-75 CNS
SR leukemia = tested on: SR leukemia
SW-620 colon = tested on: SW-620 colon
U251 CNS = tested on: U251 CNS
UACC-62 melanoma = tested on: UACC-62 melanoma

Structure (SMILES) | TGI (A549 NSCLC) | TGI (BT-549 breast) | TGI (DU-145 prostate) | TGI (EKVX NSCLC) | TGI (HCT-15 colon) | TGI (HT29 colon) | TGI (K-562 leukemia) | TGI (M14 melanoma) | TGI (OVCAR-5 ovarian) | TGI (SF-539 CNS) | TGI (SNB-19 CNS) | TGI (SNB-75 CNS) | TGI (SR leukemia) | TGI (SW-620 colon) | TGI (U251 CNS) | TGI (UACC-62 melanoma)
COc1cc2ccc1OCc1cccc(n1)COc1ccc(cc1OC)C=NCCNCCN=C2 | > 100 µM | > 100 µM | > 100 µM | > 100 µM | > 100 µM | > 100 µM | > 100 µM | > 100 µM | > 100 µM | > 100 µM | > 100 µM | > 100 µM | > 100 µM | > 100 µM | > 100 µM | –
CCOC(=O)C(Cc1ccc(N(CCCl)CCCl)cc1)NC(=O)CCCN1C(=O)CN=C(c2ccccc2)c2cc(Cl)ccc21 (stereo not drawn) | > 100 µM | > 100 µM | > 64.7 µM | > 100 µM | > 100 µM | > 100 µM | > 100 µM | 22.3 µM | > 100 µM | 16.3 µM | > 100 µM | 51.3 µM | > 27.3 µM | > 62.3 µM | > 100 µM | 5.95 µM
[N-]=[N+]=CC(=O)CCC(=O)N(c1ccccc1)c1ccccc1 | > 10 µM | > 10 µM | > 10 µM | > 10 µM | > 10 µM | > 10 µM | > 10 µM | > 10 µM | > 10 µM | > 10 µM | > 10 µM | > 10 µM | > 10 µM | > 10 µM | > 10 µM | –
Cc1ccc(N=C2C(c3ccccc3)=C(SC3=C(c4ccccc4)C(=Nc4ccc(C)cc4)c4ccccc43)c3ccccc32)cc1 | > 100 µM | > 62.8 µM | > 100 µM | 43.9 µM | > 100 µM | > 48.9 µM | > 100 µM | > 100 µM | > 100 µM | 24.6 µM | 17.1 µM | 22.2 µM | > 100 µM | > 100 µM | > 53.5 µM | > 51.7 µM
COC1CC(O[C@H]2CC[C@@]3(C)[C@@H](CC[C@]4(O)[C@@H]3CC[C@]3(C)[C@@H](C(C)=O)[C@H](OC(=O)CC(C)C)[C@@H](OC(=O)c5ccccc5)[C@@]34O)C2)OC(C)C1OC1CC(OC)C(OC2OC(C)C(O)C(OC)C2O)C(C)O1 (stereo partly drawn) | > 25 µM | > 25 µM | > 25 µM | > 25 µM | > 25 µM | > 25 µM | > 25 µM | > 25 µM | > 25 µM | > 25 µM | > 25 µM | > 25 µM | > 25 µM | > 25 µM | > 25 µM | –
CC1CN=C(Nc2ccc(F)c(Cl)c2)S1 (stereo not drawn) | > 100 µM | > 100 µM | > 100 µM | > 100 µM | > 100 µM | > 100 µM | > 100 µM | > 100 µM | > 100 µM | > 100 µM | > 100 µM | > 100 µM | > 100 µM | > 100 µM | > 100 µM | > 100 µM
CC(C)[C@@H](C)[C@@]1(C)C[C@@H]1[C@@H](C)[C@H]1CC[C@@H]([C@@H]2CC=C3C[C@@H](O)CC[C@]3(C)C2=O)[C@]1(C)CCO | – | 30.3 µM | 28.7 µM | 26 µM | 17.4 µM | 7.39 µM | 18 µM | – | 23.8 µM | 25.3 µM | 25.1 µM | 17.9 µM | 13.3 µM | 20.1 µM | 23 µM | 27.7 µM
Cc1nnc(Sc2nc(C#N)c(C#N)nc2Sc2nnc(C)s2)s1 | 56.2 µM | 27.7 µM | 36.6 µM | > 73.6 µM | 7.42 µM | > 23.8 µM | 12.6 µM | 62.9 µM | 46.5 µM | > 60.1 µM | 54.6 µM | > 82.3 µM | > 26.4 µM | – | 47.5 µM | 34.9 µM
O=C1/C(=C/c2ccc(Cl)cc2)CSC/C1=C\c1ccc(Cl)cc1 | 10.1 µM | 4.99 µM | 24.8 µM | 41.7 µM | > 100 µM | 4.81 µM | 10.1 µM | 3.92 µM | 5.57 µM | 9.26 µM | 17 µM | – | 8.15 µM | 13.4 µM | 3.04 µM | 2.83 µM
C#CC1NC(=O)C1N(CC)CC (stereo not drawn) | – | > 100 µM | > 100 µM | > 100 µM | > 100 µM | > 100 µM | > 100 µM | > 100 µM | > 100 µM | > 100 µM | > 100 µM | > 100 µM | > 100 µM | > 100 µM | > 100 µM | > 100 µM
CC1(C)OC(=O)C(Cc2ccccc2)(Cc2ccccc2)C(=O)O1 | > 100 µM | > 100 µM | > 100 µM | > 100 µM | > 100 µM | > 100 µM | > 100 µM | > 100 µM | > 100 µM | > 100 µM | – | > 100 µM | > 100 µM | > 100 µM | > 100 µM | > 100 µM
CC(=O)OCC1OC(n2nc(Cc3ccccc3)c(=S)[nH]c2=S)C(OC(C)=O)C(OC(C)=O)C1OC(C)=O (stereo not drawn) | > 100 µM | 41.7 µM | 64.3 µM | – | 40.5 µM | > 100 µM | > 100 µM | 38.1 µM | > 100 µM | 67.8 µM | 78.8 µM | 39.8 µM | > 100 µM | > 100 µM | 73.4 µM | 35.5 µM
COc1cccc(-c2c(-c3ccccc3)[nH]c(C)c2C(=O)ONC(=O)c2ccccc2)c1 | 9.59 µM | 18.7 µM | 11.8 µM | 23.8 µM | 26.1 µM | > 45.2 µM | 10.4 µM | 20 µM | 26.2 µM | 18.4 µM | 23.8 µM | 18.9 µM | 15.5 µM | 40.5 µM | 11.4 µM | 26.9 µM
COC(=O)C1=C(CCC[C@H](C)O[Si](C)(C)C(C)(C)C)NC(=O)N2[C@@H](CCO)CC[C@H]12 | 25.6 µM | 28.4 µM | 44.4 µM | 26.1 µM | 28.9 µM | 29.8 µM | > 100 µM | 30.9 µM | 33.7 µM | 31.6 µM | 29 µM | 30.5 µM | – | 42.5 µM | 29.6 µM | –
CCCCCCCCC/C=C1/CC(CO)(COC(=O)c2ccccc2)OC1=O (stereo not drawn) | 26.7 µM | 27.1 µM | 25.5 µM | 28.2 µM | 29.8 µM | 31.6 µM | 22.5 µM | 30.8 µM | 24.6 µM | 34.8 µM | 29.1 µM | 22.1 µM | 54 µM | 27.4 µM | 27.1 µM | 28.1 µM
